Assays:
F7 = assay: In vivo F7 knockdown, plasma F7 enzyme activity (BIOPHEN FVII), Balb/c mice; settings: for F7 enzyme activity (Ratio using MC3 as 1) / F7 enzyme activity (%): i.v. 0.025 mg siRNA/kg, plasma at 24 hours; for F7 enzyme activity (Ratio using MC3 as 1): relative plasma F7 activity of MC3 LNP as 1; for F7 enzyme activity (%): untreated mice as 100%
Summary of the method: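 Plasma factor VII activity was read 24 h after a single intravenous 0.025 mg siRNA/kg dose of siRNA-loaded lipid nanoparticles in 5-week-old female Balb/c mice. Activity is relative to untreated animals (100%) and normalised to the MC3 nanoparticle benchmark (=1).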

[1] = siRNA/mRNA encapsulation rate by Ribogreen reagent (section IV); type: physicochemical; settings: for % siRNA encapsulation: F7siRNA-loaded LNP, 50:10:38.5:1.5, N/P ratio 6; for % mRNA encapsulation: FlucmRNA-loaded LNP, 50:10:38.5:1.5
Summary of the method: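 Encapsulation % was calculated as (total − surface nucleic acid)/total × 100, with both values measured by RiboGreen fluorescence at 485/528 nm. Total RNA was read on LNPs lysed with 1% Triton X-100 at 1.2 μg/mL, and surface RNA on intact LNPs at 8 μg/mL in TE buffer. Concentrations came from a 0-2.5 μg/mL Triton-containing calibration curve.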

[2] = Storage stability of FlucmRNA-loaded LNP at −80, 5, 25 and 40° C.; type: physicochemical; settings: for period for which quality remained good, −80° C.: maximum storage period 1 week; for period for which quality remained good, 5° C. / period for which quality remained good, 25° C. / period for which quality remained good, 40° C. (weeks): maximum storage period 5 weeks
Summary of the method: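 Reported period is how long all three criteria hold: encapsulation rate at 80% or more, PDI of 0.2 or less, and mean particle size within +/−20 nm of day-of-preparation value. Particle size, PDI and nucleic acid encapsulation were tracked over time at storage temperatures of −80, 5, 25 and 40° C.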

spleen = assay: In vivo Fluc activity of FlucmRNA-loaded LNP by in vivo imaging, spleen; settings: Balb/c mice, 6 hours; for Fluc Activity in spleen: FlucmRNA-loaded LNP i.v. 0.1 mg mRNA/kg; for Fluc activity in the spleen, compared with CL15F6 / Fluc activity in the spleen, compared with CL4F6: 0.1 mg mRNA/kg; for Fluc activity in the spleen, compared with CL15F6: versus LNP comprising CL15F6 (Table 7); for Fluc activity in the spleen, compared with CL4F6: versus LNP comprising CL4F6 (Tables 5 and 6)
Summary of the method: (§1)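 Read-out is average radiance (p/s/cm2/sr, about 560 nm) from whole-animal imaging of liver and spleen 6 h post-dose, after tail-vein luciferin at 1.5 mg/mouse. Dosing was intravenous, 0.1 mg mRNA/kg, in 7-week-old female Balb/c mice.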

liver = assay: In vivo Fluc activity of FlucmRNA-loaded LNP by in vivo imaging, liver; settings: Balb/c mice, 6 hours; for Fluc Activity in liver: FlucmRNA-loaded LNP i.v. 0.1 mg mRNA/kg; for Fluc activity in the liver, compared with CL4F6: 0.1 mg mRNA/kg, versus LNP comprising CL4F6 (Tables 5 and 6)
Summary of the method: as §1

[3] = Average particle size (ζ-Average) and PDI by dynamic light scattering (Zetasizer Nano ZSP); type: physicochemical
Summary of the method: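 Dynamic light scattering of the particles in PBS(−) gave both the polydispersity index and the ζ-Average mean size.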

[4] = F7siRNA-loaded LNP, 50:10:38.5:1.5, N/P ratio 6
[5] = FlucmRNA-loaded LNP, 50:10:38.5:1.5
[6] = FlucmRNA-loaded LNP, lipid:DSPC:cholesterol:DMG-PEG2K 50:10:38.5:1.5

SMILES	F7 enzyme activity (Ratio using MC3 as 1) (F7)	% siRNA encapsulation [1]	% mRNA encapsulation [1]	period for which quality remained good, −80° C. [2]	period for which quality remained good, 5° C. [2]	period for which quality remained good, 25° C. [2]	period for which quality remained good, 40° C. (weeks) [2]	Fluc Activity in spleen (spleen)	Fluc Activity in liver (liver)	PDI [3, 4]	ζ-Average (nm) [3, 4]	PDI [3, 5]	ζ-Average (nm) [3, 6]	quality at production (storage stability criteria) ([2]; criteria: PDI 0.2 or less, encapsulation 80% or more)	Fluc activity in the spleen, compared with CL15F6 (spleen)	F7 enzyme activity (%) (F7)	Fluc activity in the spleen, compared with CL4F6 (spleen)	knockdown activity, compared with MC3 (F7; F7siRNA-loaded LNP, versus LNP comprising MC3)	Fluc activity in the liver, compared with CL4F6 (liver)
CCCCCCCCCCCCCCC(C)C(=O)OCCCCCCC(O)(CCCCCCOC(=O)C(C)CCCCCCCCCCCCCC)CCCCOC(=O)C1CCN(C)CC1 (stereo not drawn) [CL15F 16-1]	1.37	99.0%	94.0%	0 week	0 weeks	0 weeks	0 weeks	1.27E+06 Avg Radiance [p/s/cm2/sr]	2.18E+05 Avg Radiance [p/s/cm2/sr]	0.088	122.5 nm	0.182	187.70 nm						
CCCCC(CCCC)C(=O)OCCCCCCC(O)(CCCCCCOC(=O)C(CCCC)CCCC)CCCCOC(=O)C1CCN(C)CC1 [CL15F 6-4]	2.28	91.5%	66.7%					3.39E+07 Avg Radiance [p/s/cm2/sr]	1.84E+06 Avg Radiance [p/s/cm2/sr]	0.255	230.7 nm	0.316	312.10 nm	Does not meet the criteria for “good” at production	higher Fluc activity				
CCCCCCCCC(CCCCCCC)C(=O)OCCCCCCC(O)(CCCCCCOC(=O)C(CCCCCCC)CCCCCCCC)CCCCN(CCC)CCC (stereo not drawn) [CL4F 10-7]		100.1%	99.8%	1 week	5 weeks	5 weeks	5 weeks	2.03E+06 Avg Radiance [p/s/cm2/sr]	1.19E+08 Avg Radiance [p/s/cm2/sr]	0.013	89.34 nm	0.039	79.68 nm			4.1%			
CCCCCCCCC(CCCCCCCC)C(=O)OCCCCCCC(O)(CCCCCCOC(=O)C(CCCCCCCC)CCCCCCCC)CCCCN(CCC)CCC [CL4F 10-8]		99.9%	99.8%	1 week	5 weeks	5 weeks	5 weeks	8.04E+05 Avg Radiance [p/s/cm2/sr]	5.14E+07 Avg Radiance [p/s/cm2/sr]	0.007	91.44 nm	0.021	81.99 nm			8.1%			
CCCCCC(CCCCC)C(=O)OCCCCCCC(O)(CCCCCCOC(=O)C(CCCCC)CCCCC)CCCCN(CCC)CCC [CL4F 7-5]		100.1%	99.9%	1 week	2 weeks	5 weeks	1 week weeks	1.47E+07 Avg Radiance [p/s/cm2/sr]	4.56E+07 Avg Radiance [p/s/cm2/sr]	0.021	120.20 nm	0.057	109.80 nm			35.7%	higher Fluc activity		
CCCCCCCC(CCCCC)C(=O)OCCCCCCC(O)(CCCCCCOC(=O)C(CCCCC)CCCCCCC)CCCCOC(=O)C1CCN(C)CC1 (stereo not drawn) [CL15F 9-5]	1.11	100.1%	99.1%	1 week	5 weeks	5 weeks	5 weeks	5.77E+06 Avg Radiance [p/s/cm2/sr]	1.86E+06 Avg Radiance [p/s/cm2/sr]	0.035	129.5 nm	0.037	135.00 nm		higher Fluc activity				
CCCCCCCCCCC(CCCC)C(=O)OCCCCCCC(O)(CCCCCCOC(=O)C(CCCC)CCCCCCCCCC)CCCCOC(=O)C1CCN(C)CC1 (stereo not drawn) [CL15F 12-4]	0.81	100.2%	99.7%	1 week	5 weeks	5 weeks	5 weeks	5.10E+06 Avg Radiance [p/s/cm2/sr]	2.87E+06 Avg Radiance [p/s/cm2/sr]	0.065	113.2 nm	0.009	116.60 nm					higher knockdown activity	
CCCCCCC(CCCCCC)C(=O)OCCCCCCC(O)(CCCCCCOC(=O)C(CCCCCC)CCCCCC)CCCCN(CCC)CCC [CL4F 8-6]		100.0%	99.4%	1 week	5 weeks	5 weeks	1 week weeks	9.58E+06 Avg Radiance [p/s/cm2/sr]	1.80E+08 Avg Radiance [p/s/cm2/sr]	0.010	99.72 nm	0.022	88.78 nm			3%	higher Fluc activity		higher Fluc activity
CCCCCCCCC(CCCCC)C(=O)OCCCCCCC(O)(CCCCCCOC(=O)C(CCCCC)CCCCCCCC)CCCCOC(=O)C1CCN(C)CC1 (stereo not drawn) [CL15F 10-5]	1.33	100.5%	99.4%	1 week	5 weeks	5 weeks	5 weeks	7.55E+06 Avg Radiance [p/s/cm2/sr]	2.70E+06 Avg Radiance [p/s/cm2/sr]	0.003	111.7 nm	0.047	113.90 nm		higher Fluc activity				
CCCCCCCCCC(CCCCCC)C(=O)OCCCCCCC(O)(CCCCCCOC(=O)C(CCCCCC)CCCCCCCCC)CCCCN(CCC)CCC (stereo not drawn) [CL4F 11-6]		99.9%	99.8%	1 week	5 weeks	5 weeks	5 weeks	2.54E+06 Avg Radiance [p/s/cm2/sr]	1.38E+08 Avg Radiance [p/s/cm2/sr]	0.034	92.98 nm	0.020	84.50 nm			6%			higher Fluc activity

— patent publication US12458605B2, “Lipid nanoparticle” (National University Corporation Hokkaido University, priority 2020, dated 2025)
